Test results reported in patent US20130345392A1, “EDN3-LIKE PEPTIDES AND USES THEREOF” (Pfizer Inc, priority 2011, published 2013).
Like-named read-outs stand apart in the source and are kept apart here. Where a SMILES comes first, the peptide text is derived from it. Bridges are numbered along the chain shown (N, C = ends). Where no end group is shown, it is not given here.

T1: human endothelin ETA receptor (human, UniProt P25101 21-427)
T1 construct: whole, on cells; Assayed as membrane homogenates (10 ug protein) of transfected CHO cells; also called endothelin receptor A
T1 sequence (looked up): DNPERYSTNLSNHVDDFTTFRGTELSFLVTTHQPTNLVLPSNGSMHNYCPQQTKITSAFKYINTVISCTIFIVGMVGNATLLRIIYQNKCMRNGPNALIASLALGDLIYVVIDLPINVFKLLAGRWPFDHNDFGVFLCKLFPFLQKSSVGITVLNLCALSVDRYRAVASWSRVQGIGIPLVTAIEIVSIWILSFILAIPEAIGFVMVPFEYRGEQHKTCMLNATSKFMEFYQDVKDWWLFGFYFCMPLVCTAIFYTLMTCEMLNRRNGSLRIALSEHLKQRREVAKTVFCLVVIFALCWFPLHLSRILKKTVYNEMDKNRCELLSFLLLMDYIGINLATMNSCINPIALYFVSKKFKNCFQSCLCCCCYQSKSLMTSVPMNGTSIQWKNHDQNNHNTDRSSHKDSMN

T2: human endothelin ETB receptor (human, UniProt P24530 27-442)
T2 construct: whole, on cells; Assayed as membrane homogenates (2.4 ug protein) of transfected CHO cells; also called endothelin receptor B
T2 sequence (looked up): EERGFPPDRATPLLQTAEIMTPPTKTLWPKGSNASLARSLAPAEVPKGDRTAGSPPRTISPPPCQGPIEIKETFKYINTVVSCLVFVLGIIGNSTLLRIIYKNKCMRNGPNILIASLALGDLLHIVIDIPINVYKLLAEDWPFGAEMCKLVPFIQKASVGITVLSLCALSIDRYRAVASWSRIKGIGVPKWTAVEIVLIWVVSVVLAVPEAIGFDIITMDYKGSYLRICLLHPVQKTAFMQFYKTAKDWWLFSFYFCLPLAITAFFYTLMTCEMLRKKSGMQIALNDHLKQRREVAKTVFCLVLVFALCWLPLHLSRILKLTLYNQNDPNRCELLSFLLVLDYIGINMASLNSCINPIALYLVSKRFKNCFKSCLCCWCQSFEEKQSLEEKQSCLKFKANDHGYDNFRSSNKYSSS


How the values were obtained:
GLUTag cells = details: for GLP-1 secretion from GLUTag cells, result in words: endothelin-3 at highest concentration 10 μM
rat perfused colon = experiment: GLP-1 secretion from rat perfused colon ex vivo; details: forskolin (1 μM), rat perfused colon, vs baseline, p=0.0398
Method: Ex vivo rat colon vascular perfusion experiments were performed as previously described (Plaisancié, 1995). Male Sprague-Dawley rats (300 g) were purchased from Charles River and fed ad libitum with Purina Lab Chow #5001 (WF Fisher and Son Inc Sommerville, N.J.). Rats were decapitated and the abdomen was opened with a midline incision. […] The arterial vascular perfusion started immediately with an oxygenated Krebs-Henseleit buffer containing-solution at a rate of 2 mL/minute [solution: Krebs-Henseleit buffer (25.0 mM NaHCO3; 118 mM NaCl; 4.7 mM KCl; 1.2 mM MgSO4; 1.2 mM KH2PO4; 2.5 mM CaCl2) with 3% BSA, 5 mM glucose, MEM essential and nonessential amino acids (pH 7.4)]. The colonal lumen was perfused at the rate of 0.5 mL/minute. The remaining colon and small intestine were removed after the ligation of their respective supplying vessels. After the colon preparation was transferred to a 37° C. tissue bath, the portal effluent was collected as 5 minute fractions. The fraction aliquots were frozen at −20° C. for subsequent determinations of GLP-1. EDN3 97-140 was dissolved at 200 nM in vascular perfusion solution and perfused into the artery after a 30 minute baseline collection. […] The GLP-1 detection assay was carried out by using a commercial kit for active GLP-1 (7-36) amide according to the manufacturer's instructions (Millipore). GLP-1 release data was normalized to % baseline using the average of fractions collected prior to treatment as the baseline value and the peak data following each treatment. The average data across 3 independent experiments was reported comparing EDN3 97-140 versus control (baseline) and forskolin versus control (baseline). Statistical analysis was performed by one sided Satterwaite's test due to unequal variance and the Holm test was applied to account for multiple comparisons.

[1] = system: isolated rat aortic rings; details: read-out: EC50, concentration-dependent contractions, n=4-6
Method: The thoracic aorta with endothelium intact was isolated from male Wistar rats (300-500 g), cut into 3 mm rings, and placed in tissue baths with oxygenated Krebs-Henseleit buffer containing (in mM): KCl (4.7), CaCl2-2H2O (2.5), MgSO4-7H2O (1.2), KH2PO4 (1.2), D-glucose (10), NaHCO3 (25), NaCl (118). Tissues were placed under a 3 g basal tension and allowed to equilibrate for 1 hour at 37° C.

[2] = target: T1, human endothelin ETA receptor; experiment: radioligand competition ([125I]endothelin-1) on membranes of CHO cells transfected with human ETA
Method: (§1) To evaluate the affinity of EDN3 97-140 for the agonist site of the human endothelin ETA receptor, radioligand binding with CHO cells transfected with the ETA receptor was used. […] Following incubation, the samples are filtered rapidly under vacuum through glass fiber filters (GF/B, Packard) presoaked with 0.1% BSA and rinsed several times with an ice-cold buffer containing 50 mM Tris-HCl and 150 mM NaCl using a 96-sample cell harvester (Unifilter, Packard). Filters were dried and then counted for radioactivity in a scintillation counter (Topcount, Packard) using a scintillation cocktail (Microscint 0, Packard).

[3] = target: T2, human endothelin ETB receptor; experiment: radioligand competition ([125I]endothelin-1) on membranes of CHO cells transfected with human ETB
Method: as §1, with “ETB receptor in transfected CHO cells,” for “ETA receptor,”, “binding” for “binding with CHO cells transfected with the ETA receptor”, “were” for “are”, “The filters” for “Filters”, “dried” for “dried and”

EC50 (GLUTag cells) | Molecule | further results
> 10000 nM | STSFTYKDKESVYYSHLDIIWINTPEQTVPYGLSNYRESLRGKR-NH2 [EDN3 97-140 C->S mutant] | 
2700 nM | ATCFTYKDKECVYYAHLDIIWINTPEQTVPYGLSNYRESLRGKR-NH2 (disulfide 3-11) [EDN3 97-140 C97A, C111A] | 
1600 nM | CTAFTYKDKEAVYYCHLDIIWINTPEQTVPYGLSNYRESLRGKR-NH2 (disulfide 1-15) [EDN3 97-140 C99A, C107A] | 
 | C=C[C@@]1(C)CC(=O)[C@]2(O)[C@@]3(C)[C@@H](O)CCC(C)(C)[C@@H]3[C@H](O)[C@H](OC(C)=O)[C@@]2(C)O1 [forskolin, reference compound] | stimulation of GLP-1 release, positive control (rat perfused colon): 1717±350%
> 10000 nM | FTYKDKESVYY-NH2 [EDN3 100-110] | 
> 10000 nM | INTPEQTVPYGLSNYRESLRGKR-NH2 [EDN3 118-140] | 
> 10000 nM | CC[C@H](C)[C@H](NC(=O)[C@H](CC(=O)O)NC(=O)[C@H](CC(C)C)NC(=O)[C@H](Cc1c[nH]cn1)NC(=O)[C@@H]1CSSC[C@H](N)C(=O)N[C@@H]([C@@H](C)O)C(=O)N[C@H]2CSSC[C@H](NC(=O)[C@H](CCC(=O)O)NC(=O)[C@H](CCCCN)NC(=O)[C@H](CC(=O)O)NC(=O)[C@H](CCCCN)NC(=O)[C@H](Cc3ccc(O)cc3)NC(=O)[C@H]([C@@H](C)O)NC(=O)[C@H](Cc3ccccc3)NC2=O)C(=O)N[C@@H](C(C)C)C(=O)N[C@@H](Cc2ccc(O)cc2)C(=O)N[C@@H](Cc2ccc(O)cc2)C(=O)N1)C(=O)N[C@H](C(=O)N[C@@H](Cc1c[nH]c2ccccc12)C(=O)O)[C@@H](C)CC [endothelin-3, reference compound] | GLP-1 secretion from GLUTag cells, result in words (GLUTag cells): no effect; GLP-1 secretion from GLUTag cells, result in words (GLUTag cells; listed as Endothelin-3 (EDN3 97-117)): not sufficient to elicit a GLP-1 release
1720 nM | CTCFTYKDKECVYYCHLDIIWINTPEQTVPYGLSNYRESLR-NH2 (disulfide 1-15, 3-11 (inferred)) [EDN3 97-137] | GLP-1 secretion from GLUTag cells, result in words (GLUTag cells): partial loss of activity
> 10000 nM | CC[C@H](C)[C@H](NC(=O)[C@H](Cc1c[nH]c2ccccc12)NC(=O)[C@@H](NC(=O)[C@@H](NC(=O)[C@H](CC(=O)O)NC(=O)[C@H](CC(C)C)NC(=O)[C@H](Cc1c[nH]cn1)NC(=O)[C@H](CS)NC(=O)[C@H](Cc1ccc(O)cc1)NC(=O)[C@H](Cc1ccc(O)cc1)NC(=O)[C@@H](NC(=O)[C@H](CS)NC(=O)[C@H](CCC(=O)O)NC(=O)[C@H](CCCCN)NC(=O)[C@H](CC(=O)O)NC(=O)[C@H](CCCCN)NC(=O)[C@@H](N)Cc1ccc(O)cc1)C(C)C)[C@@H](C)CC)[C@@H](C)CC)C(=O)N[C@@H](CC(N)=O)C(=O)N[C@H](C(=O)N1CCC[C@H]1C(=O)N[C@@H](CCC(=O)O)C(=O)N[C@@H](CCC(N)=O)C(N)=O)[C@@H](C)O [EDN3 102-123] (H-YKDKECVYYCHLDIIWINTPEQ-NH2; N-terminus assumed) | 
> 10000 nM | YYSHLDIIWINTPEQTVPYGLSNYRESLRGKR-NH2 [EDN3 109-140 C111S] | 
> 10000 nM | FTYKDKECVYYCHLDIIWINTPEQTVPYGLSNYRESLRGKR-NH2 (cysteines drawn unpaired) [EDN3 100-140] | GLP-1 secretion from GLUTag cells, result in words (GLUTag cells): do not measurably stimulate GLP-1 secretion
> 10000 nM | TCFTYKDKECVYYCHLDIIWINTPEQTVPYGLSNYRESLRGKR-NH2 (cysteines drawn unpaired) [EDN3 98-140] | GLP-1 secretion from GLUTag cells, result in words (GLUTag cells): do not measurably stimulate GLP-1 secretion
> 10000 nM | YYAHLDIIAINTPEQTVPYGLSNYRESLRGKR-NH2 [EDN3 109-140 C111A W117A] | 
> 1000 nM | CTCFTYKDKECVYYCHLDIIHINTPEQTVPYGLSNYRESLRGKR-NH2 (disulfide 1-15, 3-11 (inferred)) [EDN3 97-140 W117H] | 
2000 nM | CTCFTYKDKECVYYCHLDIIWINTPEQTVPYGLSNYRESLRGKR-OH (disulfide 1-15, 3-11 (inferred)) [EDN3 97-140 free acid] | 
731 nM | CTCFTYKDKECVYYCHLDIIFINTPEQTVPYGLSNYRESLRGKR-NH2 (disulfide 1-15, 3-11 (inferred)) [EDN3 97-140 W117F] | GLP-1 secretion from GLUTag cells, result in words (GLUTag cells): does not cause a loss of GLP-1 secretagogue function
 | endothelin-1 [reference compound] | EC50 [1]: 2.7 ± 1 nM
 | CTCFTYKDKECVYYCHLDIIWINTPEQTVPYGLSNYRESLRGKR-NH2 (not fully specified; cysteine pairing not given here, also called long endothelin-3; 44 amino acid, C-terminally amidated endothelin-like peptide) [EDN3 97-140] | binding result [2]: no binding (tested: up to 3 µM); binding result [3]: no binding (tested: up to 3 µM)
